Several values for one entry are separate records, joined by “and”; a condition that tells them apart may be missing. Identical values can stand only once. Like-named read-outs stand apart in the source and are kept apart here.
Biological target: T1, avidin (AV) (Gallus gallus, UniProt P02701)
T1 construct: purchased Calbiochem (La Jolla, CA)
Experiment: Stopped-flow association kinetics of dye-labeled biotin probes binding to avidin (F(t), rF(t); Arrhenius plots/global fitting)
Set-up: ln(k) / dS+ / dG+ / Eon for BFl / b of the line y = m1x+b1: unit not given here
Settings: for k(average): k (full value); for ΔG^ǂ / ΔS^ǂ: forward; for kcal/mol (from Arrhenius slope): the values are: Ea forward; for Temperature at which the rate constants of AV and SAV reacting with BcO are the same, x: crossing of the AV and SAV lines; for half-time of association, rF¯(t) / halftime of association, rF¯(t): probe 20 nM; for half-time of association, rF¯(t): AV 260 nM
Procedure: These reactions were carried out in a buffered solution of 10 mM Tris-HCl, 100 mM KCl, 2.5 mM MgCl2 and 1 mM CaCl2 at pH 8 and only AV-BcO reactions included pH 9 and 10. The concentrations, after mixing, were of 20 nM of dye-labeled B7 probe and 260 nM, 520 nM or 1040 nM of AV; and 200 nM, 300 nM, 400 nM or 800 nM of SAV at temperatures of 10, 15, 20 and 25°C. The deglycosylation of AV (for comparative association reactions) was carried out using the provided standard protocol with endoglycosidase H [47], both with and without incubation of a denaturant solution (2% SDS and 1M 2-mercaptoethanol).
The reactions were collected with the SF instrument, described previously. The fluorescence signal was collected through a 520 nm interference filter (Oriel Corp., Stratford, CT) with a detector time constant and SF dead time of 1 μs and 1 ms, respectively. The excitation light was provided by the Coherent Ar^+ ion laser (described above) at 488 nm with […] of incident power on the reaction cuvette. The laser source was followed by the photo-elastic modulator described above with the axis oriented 45^o with respect to the electric vector of the incident light and with the half-wave modulation (50 kHz) set for 488 nm excitation. The demodulation circuitry following the photomultiplier provided a DC(t) and a rectified AC(t) which were converted to digital data by a high-speed digitizer (PCI-5122) from National Instruments (Austin, TX) with 14-bit resolution and 100 MHz bandwidth, through channels 0 and 1. The data acquisition was controlled by LabVIEW (Vr 8) software at a collection rate of 6120 data points/second and stored in spreadsheets. The AC(t) and DC(t) data were baseline corrected before obtaining the signal ratio (Eq 4) as a function of time (ρt).
The constant AGain is the instrumental amplitude gain and was evaluated by solving ρ(t) using the known steady state anisotropy (rss) of the complexes which is equivalent to the r(t) at t = ∞; and H, obtained from the equivalent grating factor (G) for the filters and photo multiplier tubes in the SF. For the probes used in here G was 0.82 and H = (1-G)/(1+G) = 0.099. Knowing Again and H, the AC(t) and DC(t) signals can be solved for r(t) and F(t) (Eqs 4 and 5) and the normalized fluorescence, F¯(t) , and corrected fluorescence anisotropy, rF¯(t), were obtained when F¯(0) and rF¯(0) were scaled to 1 at t = 0.
The F¯(t) (Eq 6) is equivalent to (I||) + 2 (I⊥) and proportional to quantum yield (QYi), molar absorptivity (εi) and to the formation or disappearance of the emitting species Xi(t); and rF¯(t) including the steady state anisotropies (rss) of each fluorescent species (Eq 7).
The possible reaction models were discriminated by the squared residuals of the observed and calculated association traces of both fluorescence and anisotropy fluorescence signals, F¯(t) and rF¯(t) , respectively.

T1 sequence (P02701 25-152): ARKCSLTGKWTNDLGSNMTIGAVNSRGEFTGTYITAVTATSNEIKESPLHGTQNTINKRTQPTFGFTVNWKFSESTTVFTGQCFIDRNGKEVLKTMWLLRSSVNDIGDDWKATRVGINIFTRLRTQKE

NC(CCCCNC(=O)CCCC[C@@H]1SC[C@@H]2NC(=O)N[C@@H]21)C(=O)NCCCCCNC(=O)c1ccc(-c2c3cc(F)c(=O)cc-3oc3cc(O)c(F)cc23)c(C(=O)O)c1 (stereo partly drawn) [BcO, Oregon green 488 Biocytin]
kon (AV, pH 9, 15 (288.15 K), k (scaled)): 3.4e+06 M⁻¹ s⁻¹ | ln(k) (AV, pH 9, 20 (293.15 K)): 15.5 | k(average) (AV, pH 9, 20 (293.15 K)): 5.37E+06 | kon (AV, pH 9, 20 (293.15 K), k (scaled)): 5.4e+06 M⁻¹ s⁻¹ | ln(k) (AV, pH 9, 25 (298.15 K)): 15.9 | k(average) (AV, pH 9, 25 (298.15 K)): 7.85E+06 | kon (AV, pH 9, 25 (298.15 K), k (scaled)): 7.9e+06 M⁻¹ s⁻¹ | ΔG^ǂ (AV, pH 9): 4.7 ± 0.1 kcal/mol | ΔS^ǂ (AV, pH 9): 30.9 ± 2.5 cal/°K·mol | Ea^Forward (AV, pH 10): 14.9 ± 0.7 kcal/mol | ln(k) (AV, pH10, 10 (283.15 K)): 14.5 | k(average) (AV, pH10, 10 (283.15 K)): 1.93E+06 | kon (AV, pH10, 10 (283.15 K), k (scaled)): 1.9e+06 M⁻¹ s⁻¹ | ln(k) (AV, pH10, 15 (288.15 K)): 14.9 | k(average) (AV, pH10, 15 (288.15 K)): 2.97E+06 | kon (AV, pH10, 15 (288.15 K), k (scaled)): 3e+06 M⁻¹ s⁻¹ | ln(k) (AV, pH10, 20 (293.15 K)): 15.4 | k(average) (AV, pH10, 20 (293.15 K)): 4.75E+06 | kon (AV, pH10, 20 (293.15 K), k (scaled)): 4.7e+06 M⁻¹ s⁻¹ | ln(k) (AV, pH10, 25 (298.15 K)): 15.8 | k(average) (AV, pH10, 25 (298.15 K)): 7.23E+06 | kon (AV, pH10, 25 (298.15 K), k (scaled)): 7.2e+06 M⁻¹ s⁻¹ | ΔG^ǂ (AV, pH 10): 4.7 ± 0.3 kcal/mol | ΔS^ǂ (AV, pH 10): 34.1 ± 1.3 cal/°K·mol | slope (Arrhenius linear fit) (AV, ph8): -7283 | slope (Arrhenius linear fit) (AV, ph9): -6979.6 | kcal/mol (from Arrhenius slope) (AV, ph9): 13.9 kcal/mol | slope (Arrhenius linear fit) (AV, ph10): -7486 | kcal/mol (from Arrhenius slope) (AV, ph10): 14.9 kcal/mol | Temperature at which the rate constants of AV and SAV reacting with BcO are the same, x: 52.1 °C | Temperature at which the rate constants of AV and SAV reacting with BcO are the same, x (x=(b1-b2)/(m2-m1) inverted): 325.2 °K | kon (pH 8, AV 260 nM, 10°C, pH 8, read-out: kon AV-BcO F¯(t)): 2.4e+06 ± 100000 M⁻¹ s⁻¹ | kon (pH 8, AV 260 nM, 10°C, pH 8, read-out: kon AV-BcO r¯F(t)): 2.7e+06 ± 100000 M⁻¹ s⁻¹ | kon (pH 8, AV 260 nM, 15°C, pH 8, read-out: kon AV-BcO F¯(t)): 4.1e+06 ± 100000 M⁻¹ s⁻¹ | kon (pH 8, AV 260 nM, 15°C, pH 8, read-out: kon AV-BcO r¯F(t)): 4e+06 ± 100000 M⁻¹ s⁻¹ | kon (pH 8, AV 260 nM, 20°C, pH 8, read-out: kon AV-BcO F¯(t)): 5.7e+06 ± 100000 M⁻¹ s⁻¹ | kon (pH 8, AV 260 nM, 20°C, pH 8, read-out: kon AV-BcO r¯F(t)): 5.9e+06 ± 100000 M⁻¹ s⁻¹ | kon (pH 8, AV 260 nM, 25°C, pH 8, read-out: kon AV-BcO F¯(t)): 9.5e+06 ± 100000 M⁻¹ s⁻¹ | kon (pH 8, AV 260 nM, 25°C, pH 8, read-out: kon AV-BcO r¯F(t)): 9.5e+06 ± 100000 M⁻¹ s⁻¹ | kon (pH 8, AV 520 nM, 10°C, pH 8, read-out: kon AV-BcO F¯(t)): 2.6e+06 ± 200000 M⁻¹ s⁻¹ | kon (pH 8, AV 520 nM, 10°C, pH 8, read-out: kon AV-BcO r¯F(t)): 2.7e+06 ± 100000 M⁻¹ s⁻¹ | kon (pH 8, AV 520 nM, 15°C, pH 8, read-out: kon AV-BcO F¯(t)): 4e+06 ± 100000 M⁻¹ s⁻¹ | kon (pH 8, AV 520 nM, 15°C, pH 8, read-out: kon AV-BcO r¯F(t)): 3.8e+06 ± 100000 M⁻¹ s⁻¹ | kon (pH 8, AV 520 nM, 20°C, pH 8, read-out: kon AV-BcO F¯(t)): 5.9e+06 ± 300000 M⁻¹ s⁻¹ | kon (pH 8, AV 520 nM, 20°C, pH 8, read-out: kon AV-BcO r¯F(t)): 5.8e+06 ± 100000 M⁻¹ s⁻¹ | kon (pH 8, AV 520 nM, 25°C, pH 8, read-out: kon AV-BcO F¯(t)): 9.5e+06 ± 300000 M⁻¹ s⁻¹ | kon (pH 8, AV 520 nM, 25°C, pH 8, read-out: kon AV-BcO r¯F(t)): 9.5e+06 ± 100000 M⁻¹ s⁻¹ | kon (pH 8, AV 1040 nM, 10°C, pH 8, read-out: kon AV-BcO F¯(t)): 2.5e+06 ± 200000 M⁻¹ s⁻¹ | kon (pH 8, AV 1040 nM, 10°C, pH 8, read-out: kon AV-BcO r¯F(t)): 2.7e+06 ± 100000 M⁻¹ s⁻¹ | kon (pH 8, AV 1040 nM, 15°C, pH 8, read-out: kon AV-BcO F¯(t)): 3.9e+06 ± 200000 M⁻¹ s⁻¹ | kon (pH 8, AV 1040 nM, 15°C, pH 8, read-out: kon AV-BcO r¯F(t)): 4e+06 ± 200000 M⁻¹ s⁻¹ | kon (pH 8, AV 1040 nM, 20°C, pH 8, read-out: kon AV-BcO F¯(t)): 6e+06 ± 100000 M⁻¹ s⁻¹ | kon (pH 8, AV 1040 nM, 20°C, pH 8, read-out: kon AV-BcO r¯F(t)): 6.1e+06 ± 100000 M⁻¹ s⁻¹ | kon (pH 8, AV 1040 nM, 25°C, pH 8, read-out: kon AV-BcO F¯(t)): 9.7e+06 ± 300000 M⁻¹ s⁻¹ | kon (pH 8, AV 1040 nM, 25°C, pH 8, read-out: kon AV-BcO r¯F(t)): 9.4e+06 ± 200000 M⁻¹ s⁻¹ | kon (pH 8, AV, Arrhenius plot, 23°C and pH 8, read-out: kon): 7.8e+06 ± 4e+11 M⁻¹ s⁻¹ | kon (pH 8, AV, pH 8, 10°C, read-out: kon): 2.6e+06 ± 300000 M⁻¹ s⁻¹ | kon (pH 8, AV, pH 8, 15°C, read-out: kon): 3.9e+06 ± 300000 M⁻¹ s⁻¹ | kon (pH 8, AV, pH 8, 20°C, read-out: kon): 5.9e+06 ± 400000 M⁻¹ s⁻¹ | kon (pH 8, AV, pH 8, 25°C, read-out: kon): 9.5e+06 ± 400000 M⁻¹ s⁻¹ | kon (pH 9, AV, pH 9, 10°C, read-out: kon): 2.3e+06 ± 100000 M⁻¹ s⁻¹ | kon (pH 9, AV, pH 9, 15°C, read-out: kon): 3.4e+06 ± 100000 M⁻¹ s⁻¹ | kon (pH 9, AV, pH 9, 20°C, read-out: kon): 5.4e+06 ± 200000 M⁻¹ s⁻¹ | kon (pH 9, AV, pH 9, 25°C, calculated from an Arrhenius plot, read-out: kon): 7.9e+06 ± 300000 M⁻¹ s⁻¹ | kon (pH 10, AV, pH 10, 10°C, read-out: kon): 1.9e+06 ± 100000 M⁻¹ s⁻¹ | kon (pH 10, AV, pH 10, 15°C, read-out: kon): 3e+06 ± 100000 M⁻¹ s⁻¹ | kon (pH 10, AV, pH 10, 20°C, read-out: kon): 4.8e+06 ± 200000 M⁻¹ s⁻¹ | kon (pH 10, AV, pH 10, 25°C, calculated from an Arrhenius plot, read-out: kon): 7.2e+06 ± 300000 M⁻¹ s⁻¹ | half-time of association, rF¯(t) (pH 8, 10°C): 1024 ms | half-time of association, rF¯(t) (pH 8, 15°C): 695 ms | half-time of association, rF¯(t) (pH 8, 20°C): 452 ms and 455 ms | half-time of association, rF¯(t) (pH 8, 25°C): 280 ms | halftime of association, rF¯(t) (AV 520 nM, pH 8, 20°C): 229 ms | halftime of association, rF¯(t) (AV 1040 nM, pH 8, 20°C): 109 ms | kon (untreated AV, 15°C, read-out: kon): 3.9e+06 M⁻¹ s⁻¹
